One assay has as its system Bax/Bcl-2. Nature of the assay: Bax/Bcl-2 ratio from ELISA. It is filed as cell-based, human. The conditions noted are these: MCF-7 cells; for Bax/Bcl-2: IC50 concentration, 48 h. The source says: Synchronization of the mitochondrial pathway is headed by the Bcl-2 family of proteins. These proteins are classified into two groups: anti-apoptotic proteins exemplified by Bcl-2 protein and the counteracting pro-apoptotic proteins including Bax protein [21]. As induction of the apoptotic machinery is one of the most useful strategies in cancer therapy, we investigated the effect of our compounds to boost the pro-apoptotic protein; Bax and reduce the anti-apoptotic protein; Bcl-2 in an attempt to explore the underlying mechanism for their cytotoxic activity (Table 1). […] Fortunately, both compounds markedly boosted the level of Bax by 8.3- and 6.4-fold, respectively (Table 4, Figure 3).
(§1) Effects of treatment of breast cancer MCF-7 cells with bis-indoles 7e and 9a on the expression levels of the pro-apoptotic markers (Bax, caspase-3, and p53) in addition to the anti-apoptotic protein Bcl-2 marker was assessed by the use of ELISA colorimetric kits as per the manufacturer’s instructions, as described earlier.
(§2) The levels of the pro-apoptotic markers (Bax, caspase-3 and p53) as well as the anti-apoptotic marker Bcl-2 were determined using ELISA colorimetric kits per the manufacturer’s instructions. Breast cancer MCF-7 cells were cultured as a monolayer in T-25 flasks and were seeded to attain 30% confluency prior to treatment. Cells were […]
(§3) At the end of treatment, cells were collected via trypsinization and centrifuged at 10,000 rpm. The pellet was then rinsed with PBS and lysed in RIPA lysis buffer at 4 °C for 45 min, then centrifuged at 14,000 rpm for 20 min to remove the cellular debris. Lysates were then collected and stored at −80 °C for later protein determination using Pierce BCA Protein Assay Kit according to manufacturer’s recommendations.
(§4) The cell lysate was diluted 10 times, and 100 μL ([…]) was added to the wells of four separate microtiter plates for the four ELISA kits that were pre-coated with primary antibodies specific to Bax, Bcl-2, caspase-3 and p53 proteins, respectively. A secondary biotin-linked antibody specific to the protein captured by the primary antibody was further added to bind the captured protein, forming a “sandwich” of specific antibodies around the desired protein in the cell lysate. The streptavidin-HRP complex was then used to bind the biotin-linked secondary antibody through its streptavidin portion. The HRP domain reacted with the added TMB substrate to form a colored product that measured at 450 nm by a plate reader ChroMate-4300 after the reaction was terminated via the addition of stop solution. […]
In general terms: An ELISA detects its analyte on a solid surface through an enzyme-linked reagent.

Another assay concerns the target T1, CDK2 (Homo sapiens, UniProt P24941).
T1 construct: purchased Reaction Biology Corp. (Kinase HotSpot service)
Nature of the assay: CDK2 kinase inhibition (Reaction Biology HotSpot). The assay is classed as biochemical. The note with it: single dose of 10 µM, read-out: % Enzyme Inhibitory Activity. As to the method: The in vitro CDK2 kinase inhibition assay was carried out by Reaction Biology Corp. (Reaction Biology Corp., Chester, PA, USA) Kinase HotSpotSM service (http://www.reactionbiology.com).
5. CDK2 kinase inhibitory activity
Reaction Biology Corp. Kinase HotSpotSM service
(http://www.reactionbiology.com) was used for screening of tested compounds. CDK2 Kinase inhibitory activity was assessed by the HotSpot assay platform, which contained specific kinase/substrate pairs along with required cofactors. Base reaction buffer:
0.1 mM Na3VO4, 2 mM DTT, 1% DMSO. Testing compounds were dissolved in 100% DMSO to specific concentration. The serial dilution was conducted by Integra Viaflo Assist in DMSO. The reaction mixture containing the examined compound and 33P-ATP was incubated at room temperature for 2 h and radioactivity was detected by filter-binding method. Kinase activity data were expressed as the percent remaining kinase activity in test samples compared to vehicle (dimethyl sulfoxide) reactions.

A further assay deals with p53. Nature of the assay: ELISA immunoassay, p53 level. The assay is classed as cell-based, human. The note with it: MCF-7 cells; for p53: IC50 concentration, 48 h. How it is done:
Moreover, their effect on the level of caspase-3; the executioner caspase and p53 was evaluated in the MCF-7 cell line. […] In addition, they augmented the level of p53 by 15.4- and 11.75-fold, respectively in comparison to the control (Table 5, Figure 3).
as §1, §2, §3, §4

Assay [1] concerns MCF-7 cells. Nature of the assay: SRB antiproliferative assay, MCF-7. The assay is classed as cell-based, human. The note with it: for IC50: Homo sapiens, MCF7, 48 h, MCF-7 breast cancer cells, SRB assay, 48 h, mean ± S.D. of three experiments; for potency relative to Staurosporine, MCF-7: ratio of IC50 values, MCF-7 cells. As to the method:
1. Anti-proliferative action toward human breast cell lines […]
and non-tumorigenic human breast epithelial cell line (MCF-10A) have been obtained from American Type Culture Collection (ATCC). The cells were maintained in Dulbecco's modified Eagle's medium (DMEM) supplemented with 10% heat inactivated fetal calf serum (GIBCO), penicillin (100 U/ml) and streptomycin (100 µg/ml) at 37 °C in humidified atmosphere containing 5% CO2. […]
grown in a 25 cm2 flask in 5 ml of culture medium.
The anti-proliferative activity of the tested compounds was measured in vitro using the Sulfo-Rhodamine-B stain (SRB) assay. Briefly, Cells were inoculated in 96-well microtiter plate (5X104 cells/ well) for 24 h before treatment with the tested compounds to allow attachment of cell to the wall of the plate. Tested compounds were dissolved in DMSO at 1 mg/ml immediately before use and diluted to the appropriate volume just before addition to the cell culture. Different concentrations of tested compounds, doxorubicin and sorafenib were added to the cells (three wells were prepared for each […]
atmosphere of 5% CO2. After 48 h cells were fixed, washed, and stained for 30 min with 0.4% (w/v) SRB dissolved in 1% acetic acid. Unbound dye was removed by four washes with 1% acetic acid, and attached stain was recovered with Tris-EDTA buffer. Color intensity was measured in an ELISA reader. The relation between percent of surviving fraction and drug concentration is plotted to get the survival curve for each cell line. […]
On the technique in general: Sulforhodamine B stains cellular protein and so reports cell mass.

Assay [2] deals with MCF-7 cells. Nature of the assay: Annexin V-FITC/PI apoptosis assay. The conditions noted are these: IC50 concentration; for Total (L.R % + U.R %): early + late apoptosis. The assay is classed as cell-based, human. As to the method: Annexin V-based flow cytometry analysis is a useful tool to investigate whether cell death is pertaining to physiological apoptosis or nonspecific necrosis. Evaluation of the apoptotic effect of bis-indoles 7e and 9a was carried out using AnxV-FITC/DAPI dual staining assay (Figure 4).
The apoptotic action of bis-indoles 7e and 9a was further explored through the investigation of their effect on the phosphatidylserine externalization in breast cancer MCF-7 cells, using Annexin-V-FITC Apoptosis Detection Kit according to manufacturer’s protocol, as reported earlier. […]
4. Annexin V-FITC Apoptosis Assay
Phosphatidylserine externalization was assayed using Annexin V-FITC/PI apoptosis detection kit (BD Biosciences, USA) according to the manufacturer’s instructions. Breast cancer MCF-7 cells were cultured to a monolayer then treated with bis-indoles 7e and 9a at their IC50 concentration. Briefly, cells were then harvested via trypsinization, and rinsed twice in PBS followed by binding buffer. Moreover, cells were re-suspended in 100 μL of binding buffer with the addition of 1 μL of FITC-Annexin V followed by an incubation period of 30 min at 4 °C. Cells were then rinsed in binding buffer and resuspended in 150 μL of binding buffer with the addition of 1 μL of DAPI (1 μg/μL in PBS). Cells were then analyzed using the flow cytometer BD FACS Canto II and the results were interpreted with FlowJo7.6.4 software (Tree Star, Ashland, OR, USA).

Two compounds from publication PMC7230731 (Marine Drugs, 2020) can be followed below.

One may read the IC50 as the concentration that gives 50% inhibition.

As to `O=C(Cc1c[nH]c2ccccc12)NN=C1C(=O)Nc2ccc([N+](=O)[O-])cc21` [Compound 7e, 2-(1H-Indol-3-yl)-N′-(5-nitro-2-oxoindolin-3-ylidene)acetohydrazide], in the assay on Bax/Bcl-2, the “Bax/Bcl-2 ratio augmentation vs control” value is given as 18.65 fold and the Bax/Bcl-2 came out at 153.6. The inhibition at 10 µM on CDK2 came to 16%. Further, in the assay on p53, the “increase of p53 level vs control” value stood at 15.4 fold and the p53 is 631.8 ± 35.8 pg/mg. Besides, in the assay on MCF-7 cells [1], the midpoint of inhibition, the IC50, lay at 440 ± 10 nM and the “potency relative to Staurosporine, MCF-7” value was determined as 15.5 times. Besides, in the assay with MCF-7 cells [2], the “Early Apoptosis (Lower Right %)” value was determined as 9.56%, the “Late Apoptosis (Upper Right %)” value was found to be 21.76%, the “increase in total apoptosis percentage vs control” value is given as 23.7 fold and the “Total (L.R % + U.R %)” value is 31.32%.

`C=CCN1C(=O)C(=NNC(=O)Cc2c[nH]c3ccccc23)c2ccccc21` [Compound 9a, N′-(1-Allyl-2-oxoindolin-3-ylidene)-2-(1H-indol-3-yl)acetohydrazide]: in the assay with Bax/Bcl-2, the “Bax/Bcl-2 ratio augmentation vs control” value was 11.1 fold and the Bax/Bcl-2 is on record as 91.2. On CDK2, the inhibition at 10 µM is 23%. In the assay with p53, the “increase of p53 level vs control” value was found to be 11.75 fold and the p53 was 482.3 ± 27.4 pg/mg. Also, in the assay with MCF-7 cells [1], the IC50 amounted to 1280 ± 40 nM and the “potency relative to Staurosporine, MCF-7” value was found to be 5.3 times. In addition, in the assay with MCF-7 cells [2], the “Early Apoptosis (Lower Right %)” value was 7.01%, the “Late Apoptosis (Upper Right %)” value was found to be 15.20%, the “increase in total apoptosis percentage vs control” value was 16.8 fold and the “Total (L.R % + U.R %)” value is 22.21%.
